The target in one test is T1, TBK1 (Homo sapiens, UniProt Q9UHD2).
T1 sequence (Q9UHD2 1-729): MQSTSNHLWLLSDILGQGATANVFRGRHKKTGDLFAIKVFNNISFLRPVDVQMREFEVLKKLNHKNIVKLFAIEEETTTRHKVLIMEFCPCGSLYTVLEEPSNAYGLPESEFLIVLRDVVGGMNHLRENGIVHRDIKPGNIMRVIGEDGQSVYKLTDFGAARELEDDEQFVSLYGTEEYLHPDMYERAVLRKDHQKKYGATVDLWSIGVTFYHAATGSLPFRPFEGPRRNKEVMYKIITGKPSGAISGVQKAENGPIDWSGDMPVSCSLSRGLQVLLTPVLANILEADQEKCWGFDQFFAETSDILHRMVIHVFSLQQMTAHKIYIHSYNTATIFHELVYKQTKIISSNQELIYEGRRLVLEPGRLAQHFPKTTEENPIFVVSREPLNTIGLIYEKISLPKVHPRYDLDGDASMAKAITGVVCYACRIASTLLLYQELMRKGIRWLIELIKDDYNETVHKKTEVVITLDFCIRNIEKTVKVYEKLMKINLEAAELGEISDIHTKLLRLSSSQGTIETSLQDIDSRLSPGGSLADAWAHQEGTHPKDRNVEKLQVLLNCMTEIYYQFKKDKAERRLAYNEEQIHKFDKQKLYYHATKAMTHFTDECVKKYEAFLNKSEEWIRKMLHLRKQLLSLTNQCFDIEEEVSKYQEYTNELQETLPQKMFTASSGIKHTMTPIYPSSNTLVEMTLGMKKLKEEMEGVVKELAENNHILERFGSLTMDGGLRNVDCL
The experiment in a line: TBK Biochemical Assay. Particulars: read-out: TBK1 IC50. The gist of the method:
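TBK1 enzyme and substrate incubated with compounds (10-point 1:4 dilution, top 30 uM final, 1% DMSO) for 90 min at 25° C, then stopped. Substrate/product peaks read by microfluidic mobility-shift (Caliper LabChip); 10 uM staurosporine as full-inhibition control.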

In the next test the target is T2, IKKε (Homo sapiens, UniProt Q14164).
T2 sequence (Q14164 1-716): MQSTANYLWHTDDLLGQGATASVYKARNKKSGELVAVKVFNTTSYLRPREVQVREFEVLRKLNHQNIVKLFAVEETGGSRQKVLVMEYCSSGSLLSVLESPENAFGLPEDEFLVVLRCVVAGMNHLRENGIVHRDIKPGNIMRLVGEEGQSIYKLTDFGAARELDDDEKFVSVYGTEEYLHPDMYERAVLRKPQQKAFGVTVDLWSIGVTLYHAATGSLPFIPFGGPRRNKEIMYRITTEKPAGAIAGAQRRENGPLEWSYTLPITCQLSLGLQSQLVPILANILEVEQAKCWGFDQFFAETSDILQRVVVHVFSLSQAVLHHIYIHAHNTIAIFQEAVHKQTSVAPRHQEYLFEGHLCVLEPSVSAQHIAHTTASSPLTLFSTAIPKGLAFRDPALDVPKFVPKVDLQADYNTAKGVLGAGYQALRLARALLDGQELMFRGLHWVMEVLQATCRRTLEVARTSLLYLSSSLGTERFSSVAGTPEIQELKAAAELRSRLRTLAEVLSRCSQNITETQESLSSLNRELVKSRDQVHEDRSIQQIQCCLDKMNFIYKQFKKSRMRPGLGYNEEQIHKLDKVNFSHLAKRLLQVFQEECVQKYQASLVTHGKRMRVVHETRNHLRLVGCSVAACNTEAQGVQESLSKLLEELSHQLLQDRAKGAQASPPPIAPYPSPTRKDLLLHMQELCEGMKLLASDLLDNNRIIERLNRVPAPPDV
The experiment in a line: IKKe Biochemical Assay. Particulars: read-out: IKKε IC50. The gist of the method:
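Recombinant IKKε and substrate were incubated with compound (10-point 1:4 series, top 30 uM final, 1% DMSO) for 90 min at 25° C, then stopped. Substrate-to-product conversion was read by LabChip microfluidic mobility shift; 10 uM staurosporine served as full-inhibition wells.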

Molecules are shown by their SMILES. Structures can show the parent of a compound that is named as a salt. Where only a bound is given, the exact number is not on record here.

For `C[C@@H]1COC[C@H](C)[C@@H]1Oc1ccc(-c2ccnc3cc(-c4ccc(C(=O)N(C)C)cc4)oc23)cc1C#N` (single isomer, unassigned) [Compound 221, 4-(7-(3-cyano-4-(3,5-dimethyl-tetrahydro-2H-pyran-4-yloxy)phenyl)furo[3,2-b]pyridin-2-yl)-N,N-dimethylbenzamide hydrochloride], the IC50 on TBK1 and at IKKε was 100 to 1000 nM in each case.
Consider `COc1cc(C(=O)N(C)C)ccc1-c1cc2nccc(-c3cc(C#N)c(NC4CCOCC4)c(C4CC4)c3)c2o1` [Compound 308, 4-(7-(3-cyano-5-cyclopropyl-4-(tetrahydro-2H-pyran-4-ylamino)phenyl)furo[3,2-b]pyridin-2-yl)-3-methoxy-N,N-dimethylbenzamide], for which the IC50 on TBK1 and at IKKε was greater than 5000 nM in each case.
In the case of `COc1cc(C(=O)N(C)C)cnc1-c1cc2nccc(-c3ccc(OC4CCOCC4)c(C#N)c3)c2o1` [Compound 274, 6-(7-(3-cyano-4-(tetrahydro-2H-pyran-4-yloxy)phenyl)furo[3,2-b]pyridin-2-yl)-5-methoxy-N,N-dimethylnicotinamide hydrochloride], the IC50 on TBK1 and at IKKε was less than 100 nM throughout.
Take `CCOC(=O)c1ccc(-c2cc3nccc(-c4ccc(N5CC[C@@H](F)C5)c(C#N)c4)c3o2)cc1` [Compound 191, 4-{7-[3-Cyano-4-((R)-3-fluoro-pyrrolidin-1-yl)-phenyl]-furo[3,2-b]pyridin-2-yl}-benzoic acid ethyl ester]: the IC50 at TBK1 was greater than 5000 nM; at IKKε, 100 to 1000 nM.
Taken in the same sequence, the figures for `CCOC(=O)c1ccc(-c2cc3nccc(-c4ccc(N5CC[C@H](F)C5)c(C#N)c4)c3o2)cc1` [Compound 187, 4-{7-[3-Cyano-4-((S)-3-fluoro-pyrrolidin-1-yl)-phenyl]-furo[3,2-b]pyridin-2-yl}-benzoic acid ethyl ester] were 1000 to 5000 nM and 100 to 1000 nM.
For `COc1cc(C(=O)N(C)C)cnc1-c1cc2nccc(-c3ncc(OC4CCOCC4)c(C#N)n3)c2o1` [Compound 396, 6-[7-[4-cyano-5-(oxan-4-yloxy)pyrimidin-2-yl]furo[3,2-b]pyridin-2-yl]-5-methoxy-N,N-dimethylpyridine-3-carboxamide], in that order: 100 to 1000 nM and 100 to 1000 nM.
For `COc1cc(C(=O)N(C)C)ccc1-c1cc2nccc(-c3ccc(OC4CCN(C)CC4(F)F)c(C#N)c3)c2o1` (stereo not shown) [Compound 97, 4-{7-[3-Cyano-4-(3,3-difluoro-1-methyl-piperidin-4-yloxy)-phenyl]-furo[3,2-b]pyridin-2-yl}-3-methoxy-N,N-dimethyl-benzamide], in that order: less than 100 nM and less than 100 nM.
On to `COc1cc(C(=O)N(C)C)cnc1-c1cc2ncc(C)c(-c3ccc(NC4CCOCC4)c(C#N)c3)c2o1` [Compound 319, 6-(7-(3-cyano-4-(tetrahydro-2H-pyran-4-ylamino)phenyl)-6-methylfuro[3,2-b]pyridin-2-yl)-5-methoxy-N,N-dimethylnicotinamide], for which the concentration for half-maximal inhibition (IC50) at TBK1 and at IKKε was 1000 to 5000 nM each time.
As for `N#Cc1cc(-c2ccnc3cc(-c4ccc(N)cc4)oc23)ccc1OC1CCOCC1` [Compound 126], the IC50 on TBK1 and at IKKε was less than 100 nM throughout.
With `CN(C)C(=O)c1ccc(-c2cc3nccc(-c4ccc(OC5CCOCC5)c(C#N)c4)c3o2)c(F)c1` [Compound 238, 4-(7-(3-cyano-4-(tetrahydro-2H-pyran-4-yloxy)phenyl)furo[3,2-b]pyridin-2-yl)-3-fluoro-N,N-dimethylbenzamide], the IC50 on TBK1 and at IKKε was less than 100 nM in each case.
Consider `COc1cc(C(=O)N2CC3CCC2CO3)ccc1-c1cc2nccc(-c3ccc(OC4CCOCC4)c(C#N)c3)c2o1` (stereo not shown) [Compound 4, 5-{2-[2-Methoxy-4-(2-oxa-5-aza-bicyclo[2.2.2]octane-5-carbonyl)-phenyl]-furo[3,2-b]pyridin-7-yl}-2-(tetrahydro-pyran-4-yloxy)-benzonitrile], for which the IC50 on TBK1 and on IKKε was less than 100 nM throughout.

The term IC50 denotes the midpoint of a concentration-inhibition curve.

The values are drawn from patent US10428080B2, “TBK/IKK inhibitor compounds and uses thereof” (Merck Patent GmbH, priority 2015, dated 2019).
